Among the data in US12084436B2, “Heterocyclic compound” (Takeda Pharmaceutical Company Limited, priority 2019, dated 2024) are acetylation of tubulin, therapeutic effectiveness and inhibition values, retold here.

Structures are written as SMILES.

The test system of the first experiment is tauopathy mouse model.
Experiment: not given
The following applies: cited from earlier work.
As for `CN1CCc2c(c3ccccc3n2Cc2ccc(C(=O)NO)cc2)C1` [Tubastatin A], the acetylation of tubulin entry is listed as “increases acetylation of tubulin” and the therapeutic effectiveness entry is “shows therapeutic effectiveness”.

Another experiment deals with T1, HDAC6 enzyme (Homo sapiens, UniProt Q9UBN7).
T1 construct: prepared by transducing full length HDAC6 gene into Sf-9 insect cells; GST; purchased SignalChem; host or cells: Sf-9 insect cells
T1 sequence (Q9UBN7 1-1215): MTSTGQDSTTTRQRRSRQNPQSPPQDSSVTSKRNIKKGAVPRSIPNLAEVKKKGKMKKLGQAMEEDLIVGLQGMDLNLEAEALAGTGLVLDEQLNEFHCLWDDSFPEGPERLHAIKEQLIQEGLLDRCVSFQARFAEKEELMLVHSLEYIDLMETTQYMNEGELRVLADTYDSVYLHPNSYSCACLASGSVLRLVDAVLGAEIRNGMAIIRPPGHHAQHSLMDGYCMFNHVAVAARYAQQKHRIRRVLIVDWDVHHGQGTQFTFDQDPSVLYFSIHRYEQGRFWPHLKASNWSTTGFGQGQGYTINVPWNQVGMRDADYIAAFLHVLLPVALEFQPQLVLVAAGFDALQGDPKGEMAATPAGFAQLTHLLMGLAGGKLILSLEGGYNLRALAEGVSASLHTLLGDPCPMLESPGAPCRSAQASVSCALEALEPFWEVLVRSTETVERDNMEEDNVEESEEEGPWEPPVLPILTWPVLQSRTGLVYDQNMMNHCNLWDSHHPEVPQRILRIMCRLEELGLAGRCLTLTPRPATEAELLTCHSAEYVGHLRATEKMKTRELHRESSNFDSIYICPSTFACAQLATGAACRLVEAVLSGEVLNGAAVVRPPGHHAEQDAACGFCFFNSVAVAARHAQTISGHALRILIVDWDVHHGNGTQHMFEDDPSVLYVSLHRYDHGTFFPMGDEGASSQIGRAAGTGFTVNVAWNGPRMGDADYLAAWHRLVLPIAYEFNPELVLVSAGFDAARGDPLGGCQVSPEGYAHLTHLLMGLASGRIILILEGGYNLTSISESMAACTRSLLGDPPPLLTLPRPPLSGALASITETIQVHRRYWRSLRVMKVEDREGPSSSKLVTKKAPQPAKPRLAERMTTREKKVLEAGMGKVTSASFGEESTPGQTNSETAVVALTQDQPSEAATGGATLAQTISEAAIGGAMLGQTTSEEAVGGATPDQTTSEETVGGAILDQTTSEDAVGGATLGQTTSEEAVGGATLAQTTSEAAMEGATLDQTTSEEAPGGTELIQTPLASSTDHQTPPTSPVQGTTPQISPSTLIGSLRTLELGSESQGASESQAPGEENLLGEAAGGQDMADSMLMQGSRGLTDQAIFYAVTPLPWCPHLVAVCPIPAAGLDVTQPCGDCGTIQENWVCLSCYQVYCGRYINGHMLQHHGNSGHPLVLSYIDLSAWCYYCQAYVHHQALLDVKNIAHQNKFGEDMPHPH
In words: HDAC6 enzyme inhibitory assay (HDAC-Glo I/II Assay kit, luminescence). It counts as biochemical. As to conditions: 10 μM test compound; wells without enzyme = 100% inhibition; read-out: HDAC6 inhibitory rate (%) (10 μM). The method in brief:
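Full-length human HDAC6, GST-purified from Sf-9 cells, was preincubated with compound for 60 min at room temperature in Tris-HCl pH 7.5 buffer with glutathione and Tween-20. Substrate-developer was then added, and luminescence was read after 20 min at room temperature. Inhibition was expressed relative to no-enzyme wells, taken as 100% inhibition.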
As to `CN1CCC(COc2cccnc2-c2cc(F)cc(-c3nnc(C(F)F)o3)c2)CC1=O` (stereo not drawn) [Example 14a, 4-{[(2-{3-[5-(difluoromethyl)-1,3,4-oxadiazol-2-yl]-5-fluorophenyl}pyridin-3-yl)oxy]methyl}-1-methylpiperidin-2-one], the inhibition at 10 µM came out at 97%.

For the compound `N#Cc1cccc(Cn2ccnc2-c2cc(-c3nnc(C(F)F)o3)ccn2)n1` [Example 94a, 6-[(2-{4-[5-(difluoromethyl)-1,3,4-oxadiazol-2-yl]pyridin-2-yl]-1H-imidazol-1-yl)methyl]pyridine-2-carbonitrile], the inhibition at 10 µM is 99%.

For `CN(Cc1ccc(C(F)F)cc1)N1Cc2ccc(-c3nnc(C(F)F)o3)cc2C1=O` [Example 57c, 6-[5-(difluoromethyl)-1,3,4-oxadiazol-2-yl]-2-[{[4-(difluoromethyl)phenyl]methyl} (methyl)amino]-2,3-dihydro-1H-isoindol-1-one], the inhibition at 10 µM is 99%.

Regarding `COc1ccc(C2(C)Oc3ccc(-c4nnc(C(F)F)o4)cc3C(=O)N2C)cc1` (stereo not drawn) [Example 18b, 6-[5-(difluoromethyl)-1,3,4-oxadiazol-2-yl]-2-(4-methoxyphenyl)-2,3-dimethyl-2,3-dihydro-4H-1,3-benzoxazin-4-one], the inhibition at 10 µM stood at 99%.

As for `CN1C(=O)c2cc(-c3nnc(C(F)F)o3)cnc2CC1(C)c1ccc(F)cc1` (stereo not drawn) [Example 25b, 3-[5-(difluoromethyl)-1,3,4-oxadiazol-2-yl]-7-(4-fluorophenyl)-6,7-dimethyl-7,8-dihydro-1,6-naphthyridin-5(6H)-one], the inhibition at 10 µM is 100%.

On to `CN1C(=O)c2cc(-c3nnc(C(F)F)o3)ccc2C[C@@]1(C)c1ccc(F)c(F)c1` [Example 49b, (3S)-7-[5-(difluoromethyl)-1,3,4-oxadiazol-2-yl]-3-(3,4-difluorophenyl)-2,3-dimethyl-3,4-dihydroisoquinolin-1(2H)-one], for which the inhibition at 10 µM stood at 42%.

`N#Cc1ccccc1Cn1ccnc1-c1cc(-c2nnc(C(F)F)o2)ccn1` [Example 79a]: the inhibition at 10 µM came to 99%.

Take `C[C@]1(c2ccc(F)cc2)Cc2ncc(-c3nnc(C(F)F)o3)cc2C(=O)N1CC(F)F` [Example 55b, (7R)-6-(2,2-difluoroethyl)-3-[5-(difluoromethyl)-1,3,4-oxadiazol-2-yl]-7-(4-fluorophenyl)-7-methyl-7,8-dihydro-1,6-naphthyridin-5(6H)-one]: the inhibition at 10 µM came out at 100%.

For the compound `CN(Cc1cncc(Cl)c1)N1Cc2ncc(-c3nnc(C(F)F)o3)cc2C1=O` [Example 70c, 6-{[(5-chloropyridin-3-yl)methyl](methyl)amino}-3-[5-(difluoromethyl)-1,3,4-oxadiazol-2-yl]-6,7-dihydro-5H-pyrrolo[3,4-b]pyridin-5-one], the inhibition at 10 µM was found to be 100%.

For the compound `O=C1COC[C@@H](Cc2ccccc2)N1c1cc(-c2nnc(C(F)F)o2)ccn1` [Example 19a, (5R)-5-benzyl-4-{4-[5-(difluoromethyl)-1,3,4-oxadiazol-2-yl]pyridin-2-yl}morpholin-3-one], the inhibition at 10 µM stood at 99%.

`Cn1ccc(OC2CCOCC2)c(-c2cc(-c3nnc(C(F)F)o3)ccn2)c1=O` [Example 91a, 4-[5-(difluoromethyl)-1,3,4-oxadiazol-2-yl]-1′-methyl-4′-[(oxan-4-yl)oxy][2,3′-bipyridine]-2′(1′H)-one]: the inhibition at 10 µM turned out to be 100%.

In the case of `CC(c1cccc(F)c1)n1ccnc1-c1cc(-c2nnc(C(F)F)o2)ccn1` (stereo not drawn) [Example 92a, 4-[5-(difluoromethyl)-1,3,4-oxadiazol-2-yl]-2-{1-[1-(3-fluorophenyl)ethyl]-1H-imidazol-2-yl}pyridine], the inhibition at 10 µM was found to be 100%.

Regarding `CN1C(=O)c2cc(-c3nnc(C(F)F)o3)ccc2OC1(C)c1ccc(OC(F)(F)F)cc1` (stereo not drawn) [Example 21b, 6-[5-(difluoromethyl)-1,3,4-oxadiazol-2-yl]-2,3-dimethyl-2-[4-(trifluoromethoxy)phenyl]-2,3-dihydro-4H-1,3-benzoxazin-4-one], the inhibition at 10 µM amounted to 99%.

Regarding `Fc1ccc(Cn2ccnc2-c2cc(F)cc(-c3nnc(C(F)F)o3)c2)cc1` [Example 46a, 2-(difluoromethyl)-5-(3-fluoro-5-{1-[(4-fluorophenyl)methyl]-1H-imidazol-2-yl}phenyl)-1,3,4-oxadiazole], the inhibition at 10 µM worked out at 99%.

Turning to `CN(Cc1cccc(N2CCOCC2)c1)N1Cc2ccc(-c3nnc(C(F)F)o3)cc2C1=O` [Example 61c, 6-[5-(difluoromethyl)-1,3,4-oxadiazol-2-yl]-2-(methyl{[3-(morpholin-4-yl)phenyl]methyl}amino)-2,3-dihydro-1H-isoindol-1-one], the inhibition at 10 µM was 99%.

In the case of `Fc1cc(-c2nnc(C(F)F)o2)cc(-c2nccn2Cc2cccnc2)c1` [Example 49a], the inhibition at 10 µM was found to be 99%.

Consider `Fc1cc(-c2nnc(C(F)F)o2)cc(-c2nccn2Cc2ccncc2)c1` [Example 24a, 4-[(2-{3-[5-(difluoromethyl)-1,3,4-oxadiazol-2-yl]-5-fluorophenyl}-1H-imidazol-1-yl)methyl]pyridine], for which the inhibition at 10 µM worked out at 98%.

Consider `O=C1c2cc(-c3nnc(C(F)F)o3)ccc2CN1Nc1ccc(F)c(Cl)c1` [Example 37c, 2-(3-chloro-4-fluoroanilino)-6-[5-(difluoromethyl)-1,3,4-oxadiazol-2-yl]-2,3-dihydro-1H-isoindol-1-one], for which the inhibition at 10 µM amounted to 99%.

For the compound `Cc1nc(Cn2ccnc2-c2cc(F)cc(-c3nnc(C(F)F)o3)c2)co1` [Example 57a, 2-(difluoromethyl)-5-(3-fluoro-5-{1-[(2-methyl-1,3-oxazol-4-yl)methyl]-1H-imidazol-2-yl}phenyl)-1,3,4-oxadiazole], the inhibition at 10 µM is 97%.

As for `Fc1cccc(Cn2c(Br)cnc2-c2cc(-c3nnc(C(F)F)o3)ccn2)c1` [Example 74a, 2-{5-bromo-1-[(3-fluorophenyl)methyl]-1H-imidazol-2-yl}-4-[5-(difluoromethyl)-1,3,4-oxadiazol-2-yl]pyridine], the inhibition at 10 µM came out at 99%.

As for `Fc1cc(-c2nnc(C(F)F)o2)cc(-c2nccn2Cc2cscn2)c1` [Example 60a, 2-(difluoromethyl)-5-(3-fluoro-5-{1-[(1,3-thiazol-4-yl)methyl]-1H-imidazol-2-yl}phenyl)-1,3,4-oxadiazole], the inhibition at 10 µM stood at 98%.

In the case of `N#Cc1ccc(Cn2ccnc2-c2cc(F)cc(-c3nnc(C(F)F)o3)c2)cn1` [Example 66a, 5-[(2-{3-[5-(difluoromethyl)-1,3,4-oxadiazol-2-yl]-5-fluorophenyl]-1H-imidazol-1-yl)methyl]pyridine-2-carbonitrile], the inhibition at 10 µM was 98%.
